Tests used:
Experiment in all cases: relative viability (nuclei count vs DMSO), 5 days (fraction); higher = more cells survive
NCI-H1975 = test system: NCI-H1975
Summary of the method: (§1)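 Lung cancer cell lines were seeded in 1536-well plates and dosed by pin tool the next day, with either a single drug or a fixed anchor-drug dose combined with five library-drug doses (not always all listed) spaced in √10 steps. Five days later, one step fixed the cells and stained their nuclei (final 0.05% Triton X-100, 1% formaldehyde, 1 ug/ml Hoechst), and nuclei were counted on 4× images. Relative viability is the nuclei count in treated wells divided by the count in vehicle wells, and each value is the median of duplicate plates.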

SK-MES-1 = test system: SK-MES-1
Summary of the method: as §1

RERF-LC-KJ = test system: RERF-LC-KJ
Summary of the method: as §1

NCI-H1395 = test system: NCI-H1395
Summary of the method: as §1

NCI-H2087 = test system: NCI-H2087
Summary of the method: as §1

NCI-H2085 = test system: NCI-H2085
Summary of the method: as §1

NCI-H1993 = test system: NCI-H1993
Summary of the method: as §1

A-427 = test system: A-427
Summary of the method: as §1

NCI-H2023 = test system: NCI-H2023
Summary of the method: as §1

EPLC-272H = test system: EPLC-272H
Summary of the method: as §1

NCI-H2170 = test system: NCI-H2170
Summary of the method: as §1

COR-L 105 = test system: COR-L 105
Summary of the method: as §1

NCI-H1651 = test system: NCI-H1651
Summary of the method: as §1

NCI-H647 = test system: NCI-H647
Summary of the method: as §1

LCLC-103H = test system: LCLC-103H
Summary of the method: as §1

NCI-H650 = test system: NCI-H650
Summary of the method: as §1

NCI-H596 = test system: NCI-H596
Summary of the method: as §1

HOP-62 = test system: HOP-62
Summary of the method: as §1

CAL-12T = test system: CAL-12T
Summary of the method: as §1

COR-L23 = test system: COR-L23
Summary of the method: as §1

PC-14 = test system: PC-14
Summary of the method: as §1

LXF-289 = test system: LXF-289
Summary of the method: as §1

NCI-H3122 = test system: NCI-H3122
Summary of the method: as §1

O=C(O)CCCCC(CCSCc1ccccc1)SCc1ccccc1 (stereo not given) [CPI-613] + O=C(CCCCCCC(=O)Nc1ccccc1)NO [Vorinostat] (partner 1 µM)
relative viability (NCI-H1975; first compound 5 µM): 0.73 | relative viability (NCI-H1975; first compound 15.81 µM): 0.735 | relative viability (NCI-H1975; first compound 50 µM): 0.692 | relative viability (NCI-H1975; first compound 158.11 µM): 0.24 | relative viability (NCI-H1975; first compound 500 µM): 0.0367 | relative viability (SK-MES-1; first compound 5 µM): 1.09 | relative viability (SK-MES-1; first compound 15.81 µM): 0.921 | relative viability (SK-MES-1; first compound 50 µM): 1.01 | relative viability (SK-MES-1; first compound 158.11 µM): 0.169 | relative viability (SK-MES-1; first compound 500 µM): 0.0799 | relative viability (RERF-LC-KJ; first compound 5 µM): 0.607 | relative viability (RERF-LC-KJ; first compound 15.81 µM): 0.53 | relative viability (RERF-LC-KJ; first compound 50 µM): 0.631 | relative viability (RERF-LC-KJ; first compound 158.11 µM): 0.415 | relative viability (RERF-LC-KJ; first compound 500 µM): 0.344 | relative viability (NCI-H1395; first compound 5 µM): 0.792 | relative viability (NCI-H1395; first compound 15.81 µM): 0.613 | relative viability (NCI-H1395; first compound 50 µM): 0.871 | relative viability (NCI-H1395; first compound 158.11 µM): 0.653 | relative viability (NCI-H1395; first compound 500 µM): 0.745 | relative viability (NCI-H2087; first compound 5 µM): 0.817 | relative viability (NCI-H2087; first compound 15.81 µM): 0.725 | relative viability (NCI-H2087; first compound 50 µM): 0.689 | relative viability (NCI-H2087; first compound 158.11 µM): 0.374 | relative viability (NCI-H2087; first compound 500 µM): 0.0093 | relative viability (NCI-H2085; first compound 5 µM): 0.791 | relative viability (NCI-H2085; first compound 15.81 µM): 0.709 | relative viability (NCI-H2085; first compound 50 µM): 0.657 | relative viability (NCI-H2085; first compound 158.11 µM): 0.457 | relative viability (NCI-H2085; first compound 500 µM): 0.216 | relative viability (NCI-H1993; first compound 5 µM): 0.569 | relative viability (NCI-H1993; first compound 15.81 µM): 0.495 | relative viability (NCI-H1993; first compound 50 µM): 0.61 | relative viability (NCI-H1993; first compound 158.11 µM): 0.404 | relative viability (NCI-H1993; first compound 500 µM): 0.227 | relative viability (A-427; first compound 5 µM): 0.884 | relative viability (A-427; first compound 15.81 µM): 0.822 | relative viability (A-427; first compound 50 µM): 0.827 | relative viability (A-427; first compound 158.11 µM): 0.726 | relative viability (A-427; first compound 500 µM): 0.492 | relative viability (NCI-H2023; first compound 5 µM): 0.537 | relative viability (NCI-H2023; first compound 15.81 µM): 0.475 | relative viability (NCI-H2023; first compound 50 µM): 0.572 | relative viability (NCI-H2023; first compound 158.11 µM): 0.0274 | relative viability (NCI-H2023; first compound 500 µM): 0.007 | relative viability (EPLC-272H; first compound 5 µM): 0.509 | relative viability (EPLC-272H; first compound 15.81 µM): 0.406 | relative viability (EPLC-272H; first compound 50 µM): 0.268 | relative viability (EPLC-272H; first compound 158.11 µM): 0.0975 | relative viability (EPLC-272H; first compound 500 µM): 0.0196 | relative viability (NCI-H2170; first compound 5 µM): 0.723 | relative viability (NCI-H2170; first compound 15.81 µM): 0.783 | relative viability (NCI-H2170; first compound 50 µM): 0.774 | relative viability (NCI-H2170; first compound 158.11 µM): 0.541 | relative viability (NCI-H2170; first compound 500 µM): 0.31 | relative viability (COR-L 105; first compound 5 µM): 0.765 | relative viability (COR-L 105; first compound 15.81 µM): 0.675 | relative viability (COR-L 105; first compound 50 µM): 1.04 | relative viability (COR-L 105; first compound 158.11 µM): 0.375 | relative viability (COR-L 105; first compound 500 µM): 0.261 | relative viability (NCI-H1651; first compound 5 µM): 0.583 | relative viability (NCI-H1651; first compound 15.81 µM): 0.528 | relative viability (NCI-H1651; first compound 50 µM): 0.528 | relative viability (NCI-H1651; first compound 158.11 µM): 0.438 | relative viability (NCI-H1651; first compound 500 µM): 0.542 | relative viability (NCI-H647; first compound 5 µM): 0.598 | relative viability (NCI-H647; first compound 15.81 µM): 0.568 | relative viability (NCI-H647; first compound 50 µM): 0.303 | relative viability (NCI-H647; first compound 158.11 µM): 0.0385 | relative viability (NCI-H647; first compound 500 µM): 0.014 | relative viability (LCLC-103H; first compound 5 µM): 0.731 | relative viability (LCLC-103H; first compound 15.81 µM): 0.662 | relative viability (LCLC-103H; first compound 50 µM): 0.771 | relative viability (LCLC-103H; first compound 158.11 µM): 0.683 | relative viability (LCLC-103H; first compound 500 µM): 0.207 | relative viability (NCI-H650; first compound 5 µM): 0.447 | relative viability (NCI-H650; first compound 15.81 µM): 0.365 | relative viability (NCI-H650; first compound 50 µM): 0.301 | relative viability (NCI-H650; first compound 158.11 µM): 0.297 | relative viability (NCI-H650; first compound 500 µM): 0.414 | relative viability (NCI-H596; first compound 5 µM): 0.471 | relative viability (NCI-H596; first compound 15.81 µM): 0.621 | relative viability (NCI-H596; first compound 50 µM): 0.766 | relative viability (NCI-H596; first compound 158.11 µM): 0.3 | relative viability (NCI-H596; first compound 500 µM): 0.061 | relative viability (HOP-62; first compound 5 µM): 0.531 | relative viability (HOP-62; first compound 15.81 µM): 0.49 | relative viability (HOP-62; first compound 50 µM): 0.574 | relative viability (HOP-62; first compound 158.11 µM): 0.285 | relative viability (HOP-62; first compound 500 µM): 0.0726 | relative viability (CAL-12T; first compound 5 µM): 0.674 | relative viability (CAL-12T; first compound 15.81 µM): 0.545 | relative viability (CAL-12T; first compound 50 µM): 0.708 | relative viability (CAL-12T; first compound 158.11 µM): 0.0538 | relative viability (CAL-12T; first compound 500 µM): 0.039 | relative viability (COR-L23; first compound 5 µM): 0.42 | relative viability (COR-L23; first compound 15.81 µM): 0.387 | relative viability (COR-L23; first compound 50 µM): 0.371 | relative viability (COR-L23; first compound 158.11 µM): 0.125 | relative viability (COR-L23; first compound 500 µM): 0.0123 | relative viability (PC-14; first compound 5 µM): 0.732 | relative viability (PC-14; first compound 15.81 µM): 0.612 | relative viability (PC-14; first compound 50 µM): 0.611 | relative viability (PC-14; first compound 158.11 µM): 0.0514 | relative viability (PC-14; first compound 500 µM): 0.0074 | relative viability (LXF-289; first compound 5 µM): 0.699 | relative viability (LXF-289; first compound 15.81 µM): 0.707 | relative viability (LXF-289; first compound 50 µM): 0.722 | relative viability (LXF-289; first compound 158.11 µM): 0.483 | relative viability (LXF-289; first compound 500 µM): 0.567 | relative viability (NCI-H3122; first compound 5 µM): 0.795 | relative viability (NCI-H3122; first compound 15.81 µM): 0.89 | relative viability (NCI-H3122; first compound 50 µM): 0.961 | relative viability (NCI-H3122; first compound 158.11 µM): 0.728 | relative viability (NCI-H3122; first compound 500 µM): 0.805
